From patent US9522882B2, “Strigolactam derivatives as plant growth regulating compounds” (Syngenta Participations AG, priority 2011, dated 2016) come the findings set out here.

Assay [1] concerns Orobanche cumana Wallr. seeds. In words: Orobanche cumana seed germination test on glass fiber filter paper in petri dishes. It is filed as in vivo. The conditions noted are these: mean, n = 5 × 100 seeds; for Germination % at concentration of 0.001 mg I^−1 / Germination % at concentration of 0.01 mg I^−1 / Germination % at concentration of 0.1 mg I^−1: preconditioned seeds of lot IN153, raceF. On the procedure: The effect of compounds of Formula (I) on germination of Orobanche cumana Wallr. seeds was evaluated on glass fiber filter paper (GFFP) in petri dishes. Seeds were preconditioned at moisture and suitable temperature to become responsive to the specific chemical germination stimulants.
Test compounds were dissolved in DMSO (10 000 mg l^−1) and stored at room temperature in a desiccators with desiccants. The stock solutions were dissolved with deionised water to the appropriate final test concentration.
Seeds of O. cumana race ‘F’ were collected from sunflower fields in Manzanilla (Seville, Spain) in 2006 (seed lot 1N146) and 2008 (seed lot 1N153) and stored at room temperature. To separate seeds from heavy organic debris, a modified sucrose floatation technique as described by Hartman & Tanimonure (Plant Disease (1991), 75, p. 494) was applied. Seeds were filled into a separation funnel and stirred in water. When seeds floated to the surface, the water fraction containing heavy debris was discarded. Seeds were re-suspended in 2.5M sucrose solution (specific gravity of 1.20) and heavy debris was allowed to settle down for 60 min. After removing debris, seeds were disinfected in 1% sodium hypochlorite solution and 0.025% (v/v) Tween 20 for 2 min. The seeds were decanted onto two layers of cheesecloth, rinsed with sterile deionised water and re-suspended in sterile deionised water. Two ml of the seed suspension containing approximately 150-400 seeds were spread evenly on two layers of sterile glass fiber filter paper disc ([…]) in Petri dishes (Ø9 cm). After wetting the discs with 3 ml sterile deionised water, petri dishes were sealed with parafilm. Seeds were incubated for 10 days at 20° C. in the dark for seed conditioning. The upper disc with conditioned seeds was briefly dried, transferred to a petri dish lined with a dry GFFP disc, and wetted with 6 ml of the appropriate test solution. The compounds of Formula (I) were tested at concentrations of 0.001, 0.01, and 0.1 mg l^−1. The strigolactone analogue GR24 (commercially available as a mixture of isomers) was included as positive control and 0.001% DMSO as negative control. All treatments were tested in five replicates. Seeds were re-incubated at 20° C. in the dark and examined for germination 10 days later. The radicles of germinated seeds were stained for 5 min with blue ink (MIGROS, Switzerland) in 5% acetic acid according to Long et al. (Seed Science Research (2008), 18, p. 125). After staining, seeds were scanned using a flatbed scanner with an optical resolution of 1200 dpi (PULSTEK, OpticPro ST28) or photographed using a camera stand mounted with a digital SLR camera (Canon EOS 5D). Germination of 100 seeds per replicate was evaluated on digital images. Seeds were considered germinated when the radicle protruded from the seed coat.

The subject of assay [2] is Brassica oleracea cv Botrytis. In words: Standard paper germination test for Brassica (tropical cauliflower seeds, 20° C. in the dark). The format is in vivo. The conditions noted are these: tropical cauliflower 3C150 (seed batch 11B295), 25 μM. On the procedure: The effect of compounds of Formula (I) on the germination of Brassica oleracea cv Botrytis or common cauliflower was tested on tropical types. […] Germination of a sensitive tropical type at 20° is stimulated by the presence of light.
The tropical seed batch tested was part of seed batches produced as basic seed (for maintenance of the parental line) and were processed accordingly.
Germination was assessed using the standard paper germination test for Brassica: Fifty seeds were placed on blue germination paper, which was moistened with the appropriate solutions, in closed oblong germination boxes. Each condition was tested in duplo. Germination boxes were placed in controlled germination cabinets with the appropriate temperature and light conditions. Germination of seeds was counted at regular intervals. Seeds were considered to be germinated when the radical had protruded the testa and endosperm (radical size approximately 1 mm). Germination kinetics were analyzed using the Germinator analysis tool in order to obtain the parameters: Gmax (maximum germination) and t50 (time needed to reach 50% of the Gmax). The Germinator analysis tool is an add-in in for excel developed by the University of Wageningen: Joosen, R. V. L., J. Kodde, et al. (2010). (“Germinator: A Software Package for High-Throughput Scoring and Curve Fitting of Arabidopsis Seed Germination.” The Plant Journal 62(1): 148-159.)
Test compounds were dissolved in DMSO at a concentration of 50 mM and stored at −20° C. The strigolactone analogue GR24 (commercially available as a racemic mixture of 2 diastereoisomers, referred to as “synthetic strigolactone GR-24” and first prepared by Johnson A. W. & all, Journal of the Chemical Society, Perkin Transactions 1, 1981, page 1734-1743) was included as positive control. Germination solutions were prepared by diluting the stock solutions with demineralized water till 25 μM. As control solutions demineralized water and a 0.05% v/v DMSO solution were used.

Consider `CC1=C[C@H](O/C=C2/C(=O)O[C@@H]3c4ccccc4C[C@H]23)OC1=O` [GR24, reference compound], for which the “Germination % at concentration of 0.001 mg I^−1” value stood at 88.6% in assay [1] (Table 5, 0.001 mg I^−1, aqueous control (0.001% DMSO) = 0.2% germination) and 79.8% in assay [1] (Table 6, 0.001 mg I^−1, aqueous control (0.001% DMSO) = 0.8% germination). For the same compound, the “Germination % at concentration of 0.01 mg I^−1” value is 96.0% in assay [1] (Table 5, 0.01 mg I^−1, aqueous control (0.001% DMSO) = 0.2% germination) and 93.2% in assay [1] (Table 6, 0.01 mg I^−1, aqueous control (0.001% DMSO) = 0.8% germination). Moreover, the “Germination % at concentration of 0.1 mg I^−1” value in assay [1] (Table 5, 0.1 mg I^−1, aqueous control (0.001% DMSO) = 0.2% germination) was 93.8%; in assay [1] (Table 6, 0.1 mg I^−1, aqueous control (0.001% DMSO) = 0.8% germination), 96.8%. Further, the “Germination %* at concentration of 0.001 mg I^−1” value in assay [1] (preconditioned Orobanche cumana seeds of lot IN153, race F, 0.001 mg I^−1, aqueous control (0.001% DMSO) = 0.2% germination) amounted to 60.8%. Also, in assay [1] (preconditioned Orobanche cumana seeds of lot IN153, race F, 0.01 mg I^−1, aqueous control (0.001% DMSO) = 0.2% germination), the “Germination %* at concentration of 0.01 mg I^−1” value stood at 83.2%. Further, the “Germination %* at concentration of 0.1 mg I^−1” value in assay [1] (preconditioned Orobanche cumana seeds of lot IN153, race F, 0.1 mg I^−1, aqueous control (0.001% DMSO) = 0.2% germination) is 90.6%. In assay [2], the “stimulation (extra germination compared to the DMSO treatment, expressed as percentage of the DMSO treatment)” value is given as 140.0%. Besides, the “Gmax (total germination)” value in assay [2] (DMSO treatment = 31.3%) was found to be 73.0%.
